Source: PubChem BioAssay AID743059 (The Scripps Research Institute Molecular Screening Center, 2013)
Calls of active or inactive are those of the source.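 The calls were made as follows: active = EC50 at or below 10 µM; inactive = EC50 above 10 µM.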

Target: Nuclear hormone receptor DAF-12 (Heterodera glycines)
Experiment: H. glycines DAF-12 receptor agonist potency, dose response, cell-based, luminescence, HEK293 (AID 743059);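 also: agonist potency for compounds that raise hgDAF-12 reporter luminescence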
Settings: HEK293 hgDAF-12 reporter, luciferase luminescence

EC50: > 67.5 µM (inactive)
SMILES: O=C(CCCc1ccccc1)NC12CC3CC(CC(C3)C1)C2
